The results in this text go back to ChEMBL document CHEMBL5512605, “Targeted regulated cell death with small molecule compounds in colorectal cancer: Current perspectives of targeted therapy and molecular mechanisms” (Eur J Med Chem, 2024).

SMILES strings stand for the structures.

Assay [1] deals with HCT-116. The assay can be described thus: Cytotoxicity against p53 null human HCT-116 cells measured after 72 hrs. Format: functional, cell-based. To be noted: HCT-116, 72 h.
The test system of assay [2] is HT-29. The assay can be described thus: Cytotoxicity against human HT-29 cells measured after 72 hrs. Format: functional, cell-based. To be noted: HT-29, 72 h.
The test system of assay [3] is RKO. The assay can be described thus: Cytotoxicity against human RKO cells measured after 72 hrs. Format: functional, cell-based.
Assay [4] deals with HCT-116. The assay can be described thus: Cytotoxicity against human HCT-116 cells measured after 72 hrs. Format: functional, cell-based. To be noted: HCT-116, 72 h.
In the next assay the test system is SW48. Nature of the assay: Cytotoxicity against human SW48 cells measured after 72 hrs. Format: functional, cell-based. To be noted: SW48, 72 h.
A further assay deals with DLD-1. Nature of the assay: Cytotoxicity against human DLD-1 cells. Type of assay: functional.
The next assay concerns the target Phospholipase D2 (Homo sapiens, UniProt O14939). Nature of the assay: Inhibition of PLD2 (unknown origin).
The target in a further assay is Phospholipase D1 (Homo sapiens, UniProt Q13393). The assay can be described thus: Inhibition of PLD1 (unknown origin).
Assay [5] deals with T1, Signal transducer and activator of transcription 3 (Homo sapiens, UniProt P40763). Nature of the assay: Inhibition of STAT3 (unknown origin).
Assay [6] relates to HCT-116. Nature of the assay: Cytotoxicity against human HCT-116 cells measured after 72 hrs by WST-1 assay. Format: functional, cell-based. To be noted: HCT-116, 72 h.
In assay [7] the test system is HCT-116. The assay can be described thus: Cytotoxicity against human HCT-116 cells assessed as inhibition of cell proliferation measured after 24 hrs by MTT assay. Format: functional, cell-based. To be noted: HCT-116, 24 h.
The test system of assay [8] is RKO. The assay can be described thus: Cytotoxicity against human RKO cells assessed as inhibition of cell proliferation measured after 24 hrs by MTT assay. Type of assay: functional, cell-based.
Assay [9] has as its target T1, Signal transducer and activator of transcription 3. Nature of the assay: Binding affinity to N-terminal his tagged recombinant human STAT3 expressed in insect cells assessed as dissociation constant by biolayer interferometry assay. Further details: species or system Insect cell.
The next assay has as its system SW480. Nature of the assay: Cytotoxicity against human SW480 cells assessed as reduction in cell viability by MTT assay. Type of assay: functional.
Assay [10] has as its system HT-29. The assay can be described thus: Cytotoxicity against human HT-29 cells assessed as reduction in cell viability by MTT assay. Format: functional.
For assay [11], the target named is T1, Signal transducer and activator of transcription 3. The assay can be described thus: Binding affinity to GFP tagged STAT3 (unknown origin) assessed as dissociation constant by microscale thermophoresis analysis.
Assay [12] has as its system HCT-116. Nature of the assay: Cytotoxicity against human HCT-116 cells assessed as reduction in cell viability by MTT assay. Format: functional.
For assay [13], the system named is RKO. Nature of the assay: Cytotoxicity against human RKO cells assessed as reduction in cell viability by MTT assay. Type of assay: functional.
Assay [14] deals with HT-29. Nature of the assay: Cytotoxicity against human HT-29 cells incubated for 24 hrs by MTT assay. Format: functional, cell-based. To be noted: HT-29, 24 h.
Assay [15] deals with HCT-116. Nature of the assay: Antiproliferative activity in human HCT-116 cells measured after 12 to 24 hrs by MTT assay. Type of assay: functional, cell-based.
For assay [16], the system named is HCT-116. The assay can be described thus: Cytotoxicity against human HCT-116 cells incubated for 24 hrs by MTT assay. To be noted: HCT-116, 24 h. Type of assay: functional, cell-based.
The test system of the next assay is SW-620. The assay can be described thus: Antiproliferative activity in human SW620 cells measured after 12 to 24 hrs by MTT assay. Type of assay: functional, cell-based.

T1 sequence (P40763 whole entry): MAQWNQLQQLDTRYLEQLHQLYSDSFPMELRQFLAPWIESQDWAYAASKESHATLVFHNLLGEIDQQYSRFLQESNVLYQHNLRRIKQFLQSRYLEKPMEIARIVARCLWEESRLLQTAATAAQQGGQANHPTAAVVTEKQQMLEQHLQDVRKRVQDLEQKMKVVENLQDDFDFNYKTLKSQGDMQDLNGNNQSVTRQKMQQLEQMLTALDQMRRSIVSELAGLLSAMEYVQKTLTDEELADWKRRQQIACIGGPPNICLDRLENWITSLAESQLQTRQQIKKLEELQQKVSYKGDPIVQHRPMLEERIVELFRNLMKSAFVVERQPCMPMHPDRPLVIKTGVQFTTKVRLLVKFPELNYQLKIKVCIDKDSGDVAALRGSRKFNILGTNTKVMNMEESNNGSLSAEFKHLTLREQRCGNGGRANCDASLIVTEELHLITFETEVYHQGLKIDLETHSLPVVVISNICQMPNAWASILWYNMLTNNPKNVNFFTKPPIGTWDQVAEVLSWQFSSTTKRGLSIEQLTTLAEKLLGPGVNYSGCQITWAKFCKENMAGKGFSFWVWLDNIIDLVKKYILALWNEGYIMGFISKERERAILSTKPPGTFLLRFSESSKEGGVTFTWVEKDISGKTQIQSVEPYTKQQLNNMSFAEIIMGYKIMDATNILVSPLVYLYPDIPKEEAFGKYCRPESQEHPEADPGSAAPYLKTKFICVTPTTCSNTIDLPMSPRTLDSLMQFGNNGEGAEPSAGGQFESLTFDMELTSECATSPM
Sequence of Phospholipase D1 (Q13393 whole entry): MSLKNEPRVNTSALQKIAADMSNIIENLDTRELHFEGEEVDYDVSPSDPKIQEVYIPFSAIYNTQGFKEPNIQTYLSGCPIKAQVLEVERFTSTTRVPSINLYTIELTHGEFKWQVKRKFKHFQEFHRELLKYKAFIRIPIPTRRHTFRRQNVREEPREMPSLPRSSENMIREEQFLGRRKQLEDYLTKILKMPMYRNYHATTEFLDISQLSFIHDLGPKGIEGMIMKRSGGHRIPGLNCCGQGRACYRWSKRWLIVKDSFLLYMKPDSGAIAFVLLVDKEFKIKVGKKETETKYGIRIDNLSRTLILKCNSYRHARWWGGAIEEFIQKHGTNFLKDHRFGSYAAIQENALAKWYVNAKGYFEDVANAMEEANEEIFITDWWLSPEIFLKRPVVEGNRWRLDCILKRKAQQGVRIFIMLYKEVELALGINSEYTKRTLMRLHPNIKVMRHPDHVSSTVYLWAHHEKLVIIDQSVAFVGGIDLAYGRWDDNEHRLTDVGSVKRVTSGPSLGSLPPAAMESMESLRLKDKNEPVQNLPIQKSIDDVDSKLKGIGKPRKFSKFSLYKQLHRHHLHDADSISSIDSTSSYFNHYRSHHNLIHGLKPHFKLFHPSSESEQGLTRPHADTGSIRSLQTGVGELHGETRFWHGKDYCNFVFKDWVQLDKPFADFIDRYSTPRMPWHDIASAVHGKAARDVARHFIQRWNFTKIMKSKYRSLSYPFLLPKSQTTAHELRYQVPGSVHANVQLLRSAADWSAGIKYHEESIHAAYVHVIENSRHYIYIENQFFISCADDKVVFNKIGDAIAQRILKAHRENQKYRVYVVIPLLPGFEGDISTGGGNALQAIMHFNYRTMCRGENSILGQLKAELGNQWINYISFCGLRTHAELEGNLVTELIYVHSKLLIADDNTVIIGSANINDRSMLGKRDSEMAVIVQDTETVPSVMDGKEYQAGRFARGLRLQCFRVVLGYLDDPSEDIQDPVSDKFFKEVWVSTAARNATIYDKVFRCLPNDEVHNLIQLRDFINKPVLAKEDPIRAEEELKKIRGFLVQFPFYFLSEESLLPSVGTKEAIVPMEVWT
Sequence of Phospholipase D2 (O14939 whole entry): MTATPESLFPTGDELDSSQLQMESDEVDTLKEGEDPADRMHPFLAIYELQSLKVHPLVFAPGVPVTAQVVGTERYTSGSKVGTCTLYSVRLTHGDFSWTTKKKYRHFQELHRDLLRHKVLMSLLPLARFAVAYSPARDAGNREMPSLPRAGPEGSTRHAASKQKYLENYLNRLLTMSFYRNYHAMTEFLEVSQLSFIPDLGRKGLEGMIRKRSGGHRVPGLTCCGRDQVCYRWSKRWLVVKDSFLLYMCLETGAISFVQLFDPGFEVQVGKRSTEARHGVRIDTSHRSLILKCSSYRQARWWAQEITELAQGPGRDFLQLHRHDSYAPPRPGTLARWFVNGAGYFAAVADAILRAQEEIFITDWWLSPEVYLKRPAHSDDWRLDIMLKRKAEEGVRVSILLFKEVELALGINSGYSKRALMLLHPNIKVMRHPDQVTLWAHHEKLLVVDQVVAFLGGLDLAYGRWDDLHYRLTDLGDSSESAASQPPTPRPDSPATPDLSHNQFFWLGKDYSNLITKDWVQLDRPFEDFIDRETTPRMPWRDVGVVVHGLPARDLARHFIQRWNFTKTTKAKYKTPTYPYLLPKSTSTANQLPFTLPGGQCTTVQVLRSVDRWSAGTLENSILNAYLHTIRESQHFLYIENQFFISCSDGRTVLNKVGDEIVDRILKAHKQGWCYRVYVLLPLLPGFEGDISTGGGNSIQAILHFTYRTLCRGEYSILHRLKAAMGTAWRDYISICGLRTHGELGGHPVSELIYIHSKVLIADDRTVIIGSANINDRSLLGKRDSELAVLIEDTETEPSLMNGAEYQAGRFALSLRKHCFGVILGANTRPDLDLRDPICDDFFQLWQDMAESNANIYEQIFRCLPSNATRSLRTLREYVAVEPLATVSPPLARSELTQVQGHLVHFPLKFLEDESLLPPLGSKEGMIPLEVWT

`O=C(O)CCCCC1CCSS1` (stereo not drawn) [LIPOIC ACID, ALPHA]: the IC50 in the assay on HCT-116 [1] came out at 890 µM; in the assay on HT-29 [2], 266 µM; in the assay on RKO [3], 266 µM; in the assay on HCT-116 [4], 266 µM; in the assay on SW48, 266 µM.

In the assay on DLD-1, `CC(=O)c1ccc2[nH]c(C(=O)Nc3cc(C(F)(F)F)cc(C(F)(F)F)c3)cc2c1` displayed an IC of 1 µM. Further, the IC50 turned out to be 0.0151 µM at Phospholipase D2 and 0.325 µM at Phospholipase D1.

Turning to `COC(=O)[C@@]12OC[C@]34[C@H]([C@@H](O)[C@@H]1O)[C@@]1(C)CC(=O)C(O)=C(C)[C@@H]1C[C@H]3OC(=O)[C@H](OC(=O)/C=C(\C)C(C)(C)OC(C)=O)[C@@H]24`, the half-maximal inhibitory concentration (IC50) in assay [5] was 2.4 pM; with HCT-116 [6], 18.7 µM.

On to `Cc1ccc(COc2ccc3c(c2)C(=O)C(=O)C2=C3OC(C)C2)cc1` (configuration not stated), for which the IC50 in the assay with HCT-116 [7] was found to be 4.07 µM; in the assay on RKO [8], 3.78 µM. Moreover, in [9], the Kd was 6.6 µM.

For `O=C1C(Nc2ccccc2N2CCNCC2)=CC2=NS(=O)(=O)c3cccc1c32`, the IC in the assay on SW480, in the assay on HT-29 [10], in the assay with HCT-116 [12] and with RKO [13] was 3 µM in each case. In addition, in assay [11], the dissociation constant Kd turned out to be 3.3 µM.

In the case of `C=C[C@@]12COC(=O)C(=C)[C@@H]1[C@H]1OC(=O)C(=C)[C@@H]1[C@@H](OC(=O)C(=C)CO)C2` [VERNODALIN], the half-maximal inhibitory concentration (IC50) with HT-29 [14] turned out to be 7.17 µM; in the assay on HCT-116 [15], 316 µM; in the assay on HCT-116 [16], 3.17 µM; in the assay with SW-620, 355 µM.
